Values quoted from earlier work in article PMC9635817, “In vitro inhibition of acetylcholinesterase activity by yellow field pea (Pisum sativum) protein-derived peptides as revealed by kinetics and molecular docking” (Frontiers in Nutrition, 2022).

System: AChE

COc1cc2c(cc1OC)[C@@H]1[C@H](O)[C@@H](OC)C=C3CCN(C2)[C@H]31 [galanthine]
AChE-inhibitory IC50: 1.96 µg/mL
